The source of these data is patent US20190254992A1, “COMBINATIONS OF BETA-GLYCOLIPIDES AND 4-[(2-AMINO-3,5-DIBROMOPHENYL)METHYLAMINO]CYCLOHEXAN-1-OL, COMPOSITIONS AND USES THEREOF IN THE TREATMENT OF DISORDERS ASSOCIATED WITH PROTEIN MISFOLDING AND PROTEIN AGGREGATIONS” (HADASIT MEDICAL RESEARCH SERVICES & DEVELOPMENT LIMITED, priority 2016, published 2019).

Experiment [1] has as its system serum cytokines (IL-1α, IL-4, IFN-γ, IL-6). The experiment in a line: Serum cytokine measurement (MILLIPLEX/Luminex) in ConA immune-mediated hepatitis mice. Conditions: oral, daily for 5 days, ConA-injected mice; for serum IL-1a: control group A 206.5; for serum IL-6: control group A 11768. Type of experiment: in vivo, C57Bl/6 mice. The protocol: Male C57Bl/6 mice (12 weeks old) were obtained from Harlan Laboratories (Jerusalem, Israel) and maintained in the Animal Core of the Hadassah-Hebrew University Medical School. Mice were kept at 11-12 weeks of age and maintained in the Animal Core of the Hadassah-Hebrew University Medical School. All mice were administered standard laboratory chow and water ad libitum and kept in a 12-hour light/dark cycle. All experiments were performed in accordance with the guidelines of the Hebrew University-Hadassah Institutional Committee for Care and Use of Laboratory Animals (IACUC protocol number: MD-16-14986-3).
Four groups of mice (n=4) were studied. Mice in all groups were injected with Concanavalin A (Con A, […]). Mice in control group A were treated with PBS. Mice in group B were orally administered 6 mg of GC, per mouse daily for 5 days prior to ConA injection.
Cytokine assessment was performed by MILLIPLEX® Analytes (EMD Millipore Corporation, Missouri 63304 U.S.A.) based on the Luminex xMAP® technology for performing immunoassays on the surface of fluorescent-coded magnetic beads MagPlex®-C microspheres. Acquiring and analyzing the data were performed using the Luminex analyzer (MAGPIX®) software. Cytokines assessment was measured by mean fluorescence intensity (MFI).

For a further experiment, the system named is type 3 neuropathic GD. The conditions noted are these: high doses, cited from earlier work.
The test system of the next experiment is glucosylceramidase. Conditions: fibroblasts from healthy controls, Gaucher patients, heterozygous GBA mutation with and without Parkinson's disease; cited from earlier work.
For experiment [2], the system named is non-neuronopathic form of GD. The conditions noted are these: patients with non-neuronopathic GD; cited from earlier work.
A further experiment has as its system alpha-synuclein. The conditions noted are these: neuroblastoma line engineered to overexpress alpha-synuclein; cited from earlier work.
Experiment [3] deals with immune-mediated liver injury. The experiment in a line: Serum liver enzymes (ALT, AST) in ConA immune-mediated hepatitis mice. Type of experiment: in vivo, C57Bl/6 mice. Conditions: oral, daily for 5 days, ConA-injected mice; for AST levels: control group A 9140; for ALT levels: control group A 24040. The protocol:
Male C57Bl/6 mice (12 weeks old) were obtained from Harlan Laboratories (Jerusalem, Israel) and maintained in the Animal Core of the Hadassah-Hebrew University Medical School. Mice were kept at 11-12 weeks of age and maintained in the Animal Core of the Hadassah-Hebrew University Medical School. All mice were administered standard laboratory chow and water ad libitum and kept in a 12-hour light/dark cycle. All experiments were performed in accordance with the guidelines of the Hebrew University-Hadassah Institutional Committee for Care and Use of Laboratory Animals (IACUC protocol number: MD-16-14986-3). Four groups of mice (n=4) were studied. Mice in all groups were injected with Concanavalin A (Con A, […]). Mice in control group A were treated with PBS. Mice in group B were orally administered 6 mg of GC, per mouse daily for 5 days prior to ConA injection. […] Serum aspartate aminotransferase (AST) and alanine aminotransferase (ALT) levels were determined with an automatic analyzer on all mice in all groups.

Consider `Nc1c(Br)cc(Br)cc1CN[C@H]1CC[C@H](O)CC1` [Ambroxol, trans-4-(2-Amino-3,5-dibrombenzylamino)-cyclohexanol], for which, in experiment [1], the “IFN-γ change (in words)” value is on record as “did not show any decrease”, the “serum IL-1a” value was 131 pg/mL and the “serum IL-6” value came out at 9504 pg/mL. Moreover, the “subjective-functional scores and objective scores (VEP, ocular movements)” value with type 3 neuropathic GD (5 individuals with type 3 neuropathic GD) is listed as “substantial clinical improvement”. Besides, the “GCase activity in lymphocytes” value in the experiment on type 3 neuropathic GD (type 3 neuropathic GD patients) was “Increased”. For the same compound, in the experiment with glucosylceramidase, the glucosylceramidase activity result is reported as “increased” and the “markers of oxidative stress” value is “reduced”. Also, the “clinical outcome of ambroxol treatment” value in experiment [2] is “disease stability”. Moreover, the alpha-synuclein levels entry in the experiment with alpha-synuclein is recorded as “reduces”. In experiment [3], this compound yielded an AST levels of 8516 IU and an ALT levels of 16455 IU.

Take B-glucosylceramide [GC]: in experiment [1], the “serum IL-1a” value amounted to 48 pg/mL and the “serum IL-6” value came to 984 pg/mL. In experiment [1] (control group A 643), this compound displayed an IFN-γ of 36 pg/mL. In experiment [3], this compound yielded an AST levels of 2939 IU and an ALT levels of 4198 IU.
